The text below walks through data of patent USRE35706E, “Lipophila derivatives of muramylpeptides having properties of activating macrophages and compositions containing them” (priority 1984, dated 1997).

Where “and” joins values, the source holds several entries; their conditions need not be identical. Identical values can stand only once.

One data set relates to Klebsiella pneumoniae. Nature of the data set: Anti-infectious activity in mice infected with Klebsiella pneumoniae. The data set is classed as in vivo. Conditions: for protective activity against lethal Klebsiella pneumoniae infection in the mouse (in words): summary of observations.
A further data set concerns Candida albicans. The data set is described as follows: Protective action in mice infected with Candida albicans. It is filed as in vivo.
Data set [1] in a line: Retention of the muramylpeptide in liposomes suspended in MEM-FCS medium. The data set is classed as physicochemical. Conditions: liposomes in MEM-FCS medium at 37° C. On the procedure:
Liposomes produced under the same conditions, but with muramylpeptides labeled with tritium have enabled the following observations. […] The incorporation of the MDP-GDP and the stability of the latter, has also been verified in reaction tests with anti-MDP monoclonal antibodies. After incubation of these liposomes in the same medium at 37° C. for 72 hours, there is observed a constant agglutination of the liposomes with the antibody (95% of the liposome being agglutinated), this observation bearing witness to the practical absence of any loss of MDP-GDP. […] The leakage, if it was produced, would have been manifested by a decrease in the intensity of agglutination with time.

Data set [2] is described as follows: Pyrogenicity measurements on rabbits (European Pharmacopoea). Particulars: 1 mg/kg; groups of three rabbits, one value per animal; listed as 6 -0-GDP-MDPG-OnBu. It is filed as in vivo, rabbit. From the text:
Certain of the compounds according to the invention show at relatively high doses, a certain pyrogenicity, whose impact is however reduced, taking into account the particularly higher therapeutic index from which they appear to benefit. This being the case, the muramylpeptides in which the group of modification by the two lipophile chains is fixed to the 6 position of the saccharide group, and of which the peptide chain is terminated by a glutamy-alpha-ester-gamma-amide group, are particularly advantageous by reason of their more reduced pyrogenicity. Testimony thereof is borne by comparative pyrogenicity measurements carried out on groups of three rabits with the two compounds more particularly studied, according to the procedure of the European Pharmacopoea, Vol. 2, 1971, pages 58-60. In fact, the following results are obtained, expressed by temperature observations observed in experimental animals to which had previously been administered 1 mg/kg of the compounds studied: for the MDP-GDP : 1°;0.9° and 1° C.; for the 6 -0-GDP-MDPG-OnBu : 0.2°; 0.3° and 0.5° C.

A further data set has as its system bovine serumal-bumin. The data set is described as follows: Adjuvant activity in the Swiss female mouse (passive hemagglutination titer). The data set is classed as in vivo. Particulars: for Primary response 1.21: 100 micrograms with 500 micrograms bovine serum albumin at day 0, serums titrated in pools at day 21; for Secondary response 1.36: booster of 100 micrograms antigen alone at day 30, serums titrated separately at day 36. The protocol:
At day 0, 100 micrograms of C474 were injected with 500 micrograms of bovine serumal-bumin. At day 30, the animals received a booster of 100 micrograms of antigen alone. The following results were obtained:
The titers are expressed in Log 2 of the passive hemagglutination titer. At day 21, the serums were titrated in pools; at day 36, they were titrated separately.

[3] abbreviates: Table X, 100 μg i.v. at day -1 (dose not given for MDP-L-Ala-GDP), 10^4 K. pneumoniae.
Where [4] appears, read: Table XI, 100 μg/day/4 days i.v. (days -4, -3, -2 and -1), 2 × 10^6 Candida albicans.

Take Gentamicin [reference compound]: the “Protection (%)” value with Klebsiella pneumoniae (Table IX, Gentamicin 10 μg subcutaneously 2 hours after infection, 5 × 10^4 K. pneumoniae) is reported as 21%.

Consider `C[C@@H]1[C@H](O)[C@@H](C)/C=C/C=C/C=C/C=C/C=C/C=C/C=C/[C@H](O[C@@H]2O[C@H](C)[C@@H](O)[C@H](N)[C@@H]2O)C[C@@H]2O[C@](O)(C[C@@H](O)C[C@@H](O)[C@H](O)CC[C@@H](O)C[C@@H](O)CC(=O)O[C@H]1C)C[C@H](O)[C@H]2C(=O)O` [Amphotericin B, reference compound], for which the “Survival (10 d)” value in the data set with Candida albicans (Table XI, Amphotericin B 3 μg subcutaneously on the day of infection, 2 × 10^6 Candida albicans i.v.) is 2/16.

In the case of “6-O-(beta, gamma-dipalmitoyl-L-glycerol)-capryl-N-acetyl-muramyl-L-alanyl-D-glutamine -n-butyl ester [6-0-GDP-aminocaproyl-MDPG-OnBu]”, in the data set with Klebsiella pneumoniae (setting [3]), the “Protection (%)” value was 56% and the “Survival (15 d)” value was 9/16. In addition, the “retention of the muramylpeptide in the liposomes (in words)” value (“retention of the muramylpeptide” below) in data set [1] was “Quite similar observations”.

Consider “6-O-(beta, gamma-dipalmitoyl-L-glyceryl)-N-acetyl-muramyl-L-alanyl-D-glutamine-n-buty l-ester [6-O-GDP-MDPG-OnBu]”, for which, in the data set on Klebsiella pneumoniae (Table VII, aqueous suspension, 100 μg i.v. at day -1, 10^4 K. pneumoniae), the “Protection (%)” value was 68.7%. For the same molecule, the “Survival (15 d)” value in the data set with Klebsiella pneumoniae (Table VII, aqueous suspension, 100 μg i.v. at day -1, mice infected i.v. with 10^4 K. pneumoniae) is recorded as 22/32. In addition, the “protective activity against lethal Klebsiella pneumoniae infection in the mouse (in words)” value (“protective activity … in the mouse (in words)” for short) in the data set with Klebsiella pneumoniae is on record as “protective activity comparable”. For the same molecule, the “retention of the muramylpeptide” value in data set [1] was “Quite similar observations”. For the same molecule, the “pyrogenicity, temperature observations in experimental animals” value in data set [2] is 0.2 °C and 0.3 °C and 0.5 °C. Also, in the data set with bovine serumal-bumin, the “Primary response 1.21” value is reported as 2.64 Log 2 of the passive hemagglut and the “Secondary response 1.36” value was 8.6 Log 2 of the passive hemagglut.

As for `CCCCCCCCCCCCCCCC(=O)OCC(COC(=O)[C@H](C)NC(=O)CC[C@@H](NC(=O)[C@H](C)NC(=O)[C@@H](C)O[C@H]1[C@H](O)[C@@H](CO)OC(O)[C@@H]1NC(C)=O)C(N)=O)OC(=O)CCCCCCCCCCCCCCC` (stereo partly drawn) [MDP-L-Ala-GDP, alpha (N-acetyl-muramyl-L-alanyl-D-isoglutaminyl-L-alanine), beta, gamma-dipalmitoyl-sn-glycerol], the “Protection (%)” value in the data set on Klebsiella pneumoniae (setting [3]) is 63%. In data set [1], the “retention of the muramylpeptide” value is listed as “Quite similar observations”.

“alpha (N-acetyl-muramyl-D-alanyl-D-isoglutamine), beta, gamma-dipalmitoyl-sn-glycerol [MDP (D-D) - GDP]”: the “protective activity … in the mouse (in words)” value with Klebsiella pneumoniae is reported as “protective activity comparable”. For the same molecule, the “Survival (10 d)” value in the data set with Candida albicans (setting [4]) is reported as 0/16. Besides, in data set [1], the “retention of the muramylpeptide” value is reported as “Quite similar observations”.

`CCCCCCCCCCCCCCCC(=O)OC[C@@H](COC(=O)CC[C@@H](NC(=O)[C@H](C)NC(=O)[C@@H](C)O[C@H]1[C@H](O)[C@@H](CO)OC(O)[C@@H]1NC(C)=O)C(N)=O)OC(=O)CCCCCCCCCCCCCCC` (stereo partly drawn) [MDP-GDP, alpha (N-acetyl-muramyl-L-alanyl-D-isoglutamine), beta, gamma-dipalmitoyl-sn-glycerol]: the “Protection (%)” value in the data set with Klebsiella pneumoniae (Table IX, 30 μg intravenously 24 hours before infection, 5 × 10^4 K. pneumoniae) is given as 16%. Further, the “protective activity when injected in liposomes (in words)” value with Klebsiella pneumoniae (in liposomes, at 0.1 microgram) was “the most active”. Further, the “protective activity … in the mouse (in words)” value in the data set on Klebsiella pneumoniae is given as “protective activity comparable”. Moreover, the Protection was found to be 19 in the data set on Candida albicans (Table XI, 100 μg/day/4 days i.v.) and 75% in the data set with Candida albicans (Table XII, aqueous suspension 100 μg × 4). Moreover, the “Survival (10 d)” value in the data set with Candida albicans (setting [4]) was 2/16; in the data set on Candida albicans (Table XII, aqueous suspension 100 μg × 4 (days -4, -3, -2, -1), 10^6 Candida albicans) it was 6/8. The “Primary response 1.21” value in the data set on bovine serumal-bumin is 3.64 Log 2 of the passive hemagglut. In the data set with bovine serumal-bumin, the “Secondary response 1.36” value is listed as 10.27 Log 2 of the passive hemagglut.

Turning to `CCCCCCCCCCCCCCCC(=O)OCC(COC(=O)[C@H](C)NC(=O)CC[C@@H](NC(=O)[C@@H](C)NC(=O)[C@@H](C)O[C@H]1[C@H](O)[C@@H](CO)OC(O)[C@@H]1NC(C)=O)C(N)=O)OC(=O)CCCCCCCCCCCCCCC` (stereo partly drawn) [MDP(D,D)-L-Ala-GDP, alpha (N-acetyl-muramyl-D-alanyl-D-isoglutaminyl-L-alanine) beta, gamma-dipalmitoyl-sn-glycerol], the “Protection (%)” value in the data set with Klebsiella pneumoniae (setting [3]) was 25%. Further, in the data set on Klebsiella pneumoniae, the “protective activity … in the mouse (in words)” value was “although active, is less so than MDP-L-Ala-GDP”. In addition, in data set [1], the “retention of the muramylpeptide” value is given as “Quite similar observations”.
